Data as given in patent US12721861B2, “Delivery and retention of active agents within the skin” (Fount Bio, Inc., priority 2019, dated 2026).
“Also recorded” adds a separate entry of the source.

What was measured:
[1] = test system: 3D reconstructed epidermis model (Epiderm tissue, Epi-200); experiment: Skin irritation test (OECD TG 439, EPI-200-SIT), MTT viability; assay type: cell-based, human; conditions: for reduction in cell viability in the skin tissue: 1 h exposure, MTT, relative to PBS, SDS 5%, HA-CBT 20 and 2 mg/mL, gly-CBT 1 and 0.1 mg/mL
Method: To evaluate the biocompatibility of CBT functionalized molecules, a skin irritation study was conducted using a 3D reconstructed epidermis model supplied by Mattek. The skin irritation test was conducted following the OECD TG 439 protocol as a basis. Upon receiving the Epiderm™ tissue (Epi-200) from Mattek, the tissue inserts were removed from agarose and incubated in 0.9 mL of media in 6 well plates for 1 h at 37° C. The tissue inserts were then transferred to new wells containing 0.9 mL of fresh media, and incubated overnight for 18 h at 37° C. 30 μL of PBS, HA-CBT (20 mg/mL and 2 mg/mL in PBS), gly-CBT (1 mg/mL and 0.1 mg/mL), and SDS (5 wt %) was applied and spread on the top of 3 independent tissue inserts each. After incubation at 37° C. for 1 h, the formulations were pipetted out and the tissue inserts were washed three times with PBS. The tissue inserts were then incubated in fresh media for 24 h at 37° C. The media was then exchanged with fresh media, and the inserts were incubated for an additional 18 h at 37° C. Following incubation, the viability of the tissue was assessed using the MTT assay, discussed in detail in a protocol established by Mattek (EPI-200-SIT).

[2] = Penetration of gly-CBT in 3D human skin model (EpiDerm), absorbance at 326 nm and microscopy; assay type: in vitro ADME
Method: The penetration and interactions of gly-CBT in human skin was assessed using a 3D human skin model (Mattek EpiDerm™). After allowing the skin tissues to equilibrate with media for 1 h at 37° C. in 6 well plates, the media was replaced with PBS and 100 μL of PBS and gly-CBT (1 mg/mL) were applied on top of 4 skin tissues each. Following 6 h incubation, a single tissue from each group was flash frozen in OCT for cryosectioning and microscopy. For the remaining samples, the liquid which remained on top of the tissue inserts (~100 μL) and the liquid in the acceptor solution (900 μL) was collected. The top of the tissue inserts were then washed 2× with PBS and then the inserts were submerged into 2 mL of a 1:1 PBS:MeOH solution to extract molecules which penetrated the skin. After performing the extraction for 2 h at 37° C., the concentration of gly-CBT was measured in the donor, acceptor, and extract solutions by reading the absorbance at 326 nm with a plate reader. The remaining tissue insert was cryosectioned and imaged using fluorescent microscopy as described in Example 1.

[3] = Distribution of chemical species in EpiDerm tissue by HPLC with sequential extractions; assay type: in vitro ADME, human
Method: To further study the penetration of gly-CBT within human skin tissue, HPLC was used to quantify the distribution of different chemical species after application of gly-CBT and gly-aminoLuciferin (gly-Luc) into EpiDerm™ tissue. As described above, 100 μL of gly-CBT and gly-Luc was applied on the top of the skin tissue. Following 6 h incubation, the donor and acceptor solutions were collected and the chemical species which penetrated the skin were attempted to be extracted with 1:1 MeOH:PBS. Following the first extraction protocol, the tissue inserts were rinsed with PBS and imaged in a dark room by exposing with a UV254 lamp. Following the imaging, further extractions were carried out sequentially with 1.0% Triton X-100, acidified MeOH (0.1% TFA), and DCM. Neither of the later extractions were successful in extracting out any additional CBT species.

[4] = Skin penetration on porcine skin, fluorescence microscopy of cryosections; assay type: in vitro ADME
Method: Frozen, porcine skin was allowed to equilibrate to room temperature, and then cut into ~2×2 cm squares and placed into 0.9 mL of PBS in a 6 well plate. 25 μL of HA-CBT (10 mg/mL in PBS), gly-CBT (1 mg/mL in PBS), and PBS were gently spread on porcine skin to a 1 cm circle with a metal spatula. After spreading the formulations, the 6 well plate was placed into a humidified incubator at 37° C. for 18 h.
A small region in the center of the application area was then excised using a surgical scalpel, and placed into OCT in a biopsy mold. The tissue was snap frozen by placing the biopsy mold directly into a methylpentane, dry ice slurry. The tissue was then sectioned on a cryostat microtome to 20 μm sections. A drop of ProLong Gold was placed on each section and covered with a coverslip prior to imaging. Images were taken on a ZeissAxioPlan2 using a 10× objective and a DAPI filter to visualize the location of CBT.

| applied gly-CBT extracted from within the Epiderm tissue ([2]; 1:1 PBS:MeOH extraction 2 h at 37 °C) | total gly-CBT detected after extraction and in donor and acceptor solutions ([2]; 6 h incubation, 1:1 PBS:MeOH extraction) | fraction of the penetrated amount that appeared in the acceptor compartment ([2]; EpiDerm, 6 hours) | fraction of the penetrated amount that remained in the skin ([2]; EpiDerm, 6 hours) | applied dose that penetrated the skin ([2]; EpiDerm, within 6 hours) | fluorescent signal within the tissue by microscopy ([2]; after 6 h application, cryosection) | applied gly-CBT remaining on the surface of the epiderm tissue ([2]; after 6 h incubation, 1 mg/mL, absorbance 326 nm) | fluorescence of tissue insert under UV lamp ([3]; after first extraction process and washing step) | extraction of gly-CBT from porcine skin [4] | fluorescence signal in the dermis ([4]; 18 h at 37 °C, DAPI filter) | fluorescence within the stratum corneum and epidermis ([4]; 18 h at 37 °C, DAPI filter, HA-CBT 10 mg/mL, gly-CBT 1 mg/mL in PBS) | SMILES | reduction in cell viability in the skin tissue [1] | extractability from the tissue with Triton X-100, acidified methanol and dichloromethane ([3]; sequential extractions after 1:1 MeOH:PBS) | irritation classification ([1]; EPI-200-SIT, relative viability greater than 50% = non-irritant) |
| --- | --- | --- | --- | --- | --- | --- | --- | --- | --- | --- | --- | --- | --- | --- |
| – | – | – | – | – | – | – | – | – | – | – | CCCCCCCCCCCCOS(=O)(=O)[O-].[Na+] [SDS, reference compound] | ~100% | – | – |
| ~ 10% | ~ 50% | about ⅓ | ⅔ | about 75% | significant fluorescent signal | ~ 25% | extremely fluorescent | inability to extract | lower signal | High fluorescence | N#Cc1nc2ccc(NC(=O)CN)cc2s1 [gly-CBT] | neither gly-CBT nor HA-CBT showed any reduction | unable to be extracted; also recorded: could not be removed | non-irritants |
